Series [1] deals with Urokinase-type Plasminogen Activator (uPA) (Homo sapiens, UniProt P00749). The series is described as follows: uPA cleavage of substrate peptides measured by FRET. Type of series: biochemical. The settings on record: uPA 7.5 × 10^−3 mg/mL, peptide 0.5 mg/mL, PBS pH=7.4. The method, then: (§1) All peptide solutions were finally diluted to 50 μL with 20 mM PBS at pH=7.4.
The target of series [2] is Tissue-type Plasminogen Activator (tPA) (Homo sapiens, UniProt P00750). Description: tPA digestion of substrate peptides measured by FRET. Type of series: biochemical. On the procedure: as §1
In a further series the test system is antibody Ab2B. Description: Biacore affinities between TBP and antibody. Type of series: binding. On the procedure:
Anti-human Fab was ligated to Biacore chips at pH 4.5. […] TBPs were flowed through the chip as analytes at 30 μL/min. 10 mM glycine at pH 1.5 was used for regeneration of the chip. Conditions were optimized as needed.
A general note: In SPR one partner is held on a chip, and binding of the other changes the refractive index at the surface.

Another series concerns HCT15-hPDL1 cells. Description: In vitro cytotoxicity study, CellTiter-Glo Luminescent Cell Viability Assay. Type of series: cell-based, Human. The settings on record: 5 days exposure. On the procedure: The cell line was named as HCT15-hPDL1. Cells were cultured at 37° C. with 5% C02 using RPMI1640 medium supplemented with 10% FBS, plus 1 μg/ml of puromycin.
The in vitro anti-tumor activity was determined by CellTiter-Glo® Luminescent Cell Viability Assay (Promega) according to the manufacturer's instructions. Briefly, cells were seeded into 96-well plates at 2×10^3 cells per well in 100 μL complete medium, then incubated at 37° C. with 5% CO2 overnight. Untreated cells served as control. ADCs, antibodies, or payloads in 100 μL medium were added in duplicate at various concentrations with a 2-fold dilution series starting with concentrations of 1 uM, respectively. Cells were exposed to test articles for 5 days. […]. The cell survival rate (%) was calculated using the following formula: sample/control×100%.
On the technique in general: ATP-based viability assays read luminescence as a measure of living cells.

Series [3] in a line: Stability of Compound of Formula (1) and (2) in buffer. Type of series: physicochemical. The method, then: Preparation of 20 mM phosphate buffer with pH=7.4 (in 1 L): 8.0 g sodium chloride, 0.2 g potassium chloride, 7.3 g disodium hydrogen phosphate dodecahydrate, and 0.48 g potassium dihydrogen phosphate was dissolved in water and dilute to 1 L at pH 7.4.
The buffer was adjusted to pH 9.0, 7.0 and 5.0 with saturated phosphoric acid solution and sodium hydroxide solution. […] The solution pH was adjusted back to 5, and shaken overnight at room temperature (16 h) before testing.

A short description of series [4]: Stability of Compound of Formula (1) and (2) in plasma. Type of series: in vitro ADME. The settings on record: pH 7.4, 0.5 mg/mL. The method, then: Preparation of protein precipitation solution: 1 g NaCl was added to 3 mL methanol and 5 mL acetonitrile, stirred for 1 h, and then allowed to stand at room temperature for 1 h before use.
200 μL protein precipitation solution was then added to the reaction solution and centrifuged at 8000 g for 10 min. The supernatant was collected for analysis.

Another series concerns the target CathepsinB (Homo sapiens, UniProt P07858). The series is described as follows: Digestion of the drug-linkers by CathepsinB. Type of series: biochemical. The settings on record: 125 nM enzyme, 62.5 μM drug-linker, pH 5.5, 37° C., 3 hours. The method, then: To simulate the release of drug under physiological conditions, the drug-linkers were subjected to cleavage by CathepsinB, after which an elimination reaction occurred and unmodified drug was released.
Lyophilized CathepsinB enzyme powder was dissolved in 130 μL of pure water, and divided into 13 tubes of 10 μL each. At this time, the concentration of each tube was 0.15 mg/ml (4.15 μM). Activation buffer (20 mM sodium acetate, 30 mM DTT, 15 mM EDTA, pH 5.5) was then added to a tube of enzyme to activate the enzyme for 1 hour at room temperature. The activated enzyme was diluted to 125 nM with enzyme digestion buffer (25 mM sodium acetate, 1 mM EDTA, pH 5.5). Drug-linkers were added to the activated enzyme to a final concentration of 62.5 μM, and incubated at 37° C. for 3 hours.

Series [5] concerns the target T1, TLR9 (HEK-Blue hTLR9-hPDL1 cells) (Homo sapiens, UniProt Q9NR96).
T1 construct: expressed in transfected cells; host or cells: HEK-Blue hTLR9-hPDL1 (HEK-Blue hTLR9 cells carrying lentiviral human PD-L1, NM_014143)
T1 sequence (Q9NR96 26-1032): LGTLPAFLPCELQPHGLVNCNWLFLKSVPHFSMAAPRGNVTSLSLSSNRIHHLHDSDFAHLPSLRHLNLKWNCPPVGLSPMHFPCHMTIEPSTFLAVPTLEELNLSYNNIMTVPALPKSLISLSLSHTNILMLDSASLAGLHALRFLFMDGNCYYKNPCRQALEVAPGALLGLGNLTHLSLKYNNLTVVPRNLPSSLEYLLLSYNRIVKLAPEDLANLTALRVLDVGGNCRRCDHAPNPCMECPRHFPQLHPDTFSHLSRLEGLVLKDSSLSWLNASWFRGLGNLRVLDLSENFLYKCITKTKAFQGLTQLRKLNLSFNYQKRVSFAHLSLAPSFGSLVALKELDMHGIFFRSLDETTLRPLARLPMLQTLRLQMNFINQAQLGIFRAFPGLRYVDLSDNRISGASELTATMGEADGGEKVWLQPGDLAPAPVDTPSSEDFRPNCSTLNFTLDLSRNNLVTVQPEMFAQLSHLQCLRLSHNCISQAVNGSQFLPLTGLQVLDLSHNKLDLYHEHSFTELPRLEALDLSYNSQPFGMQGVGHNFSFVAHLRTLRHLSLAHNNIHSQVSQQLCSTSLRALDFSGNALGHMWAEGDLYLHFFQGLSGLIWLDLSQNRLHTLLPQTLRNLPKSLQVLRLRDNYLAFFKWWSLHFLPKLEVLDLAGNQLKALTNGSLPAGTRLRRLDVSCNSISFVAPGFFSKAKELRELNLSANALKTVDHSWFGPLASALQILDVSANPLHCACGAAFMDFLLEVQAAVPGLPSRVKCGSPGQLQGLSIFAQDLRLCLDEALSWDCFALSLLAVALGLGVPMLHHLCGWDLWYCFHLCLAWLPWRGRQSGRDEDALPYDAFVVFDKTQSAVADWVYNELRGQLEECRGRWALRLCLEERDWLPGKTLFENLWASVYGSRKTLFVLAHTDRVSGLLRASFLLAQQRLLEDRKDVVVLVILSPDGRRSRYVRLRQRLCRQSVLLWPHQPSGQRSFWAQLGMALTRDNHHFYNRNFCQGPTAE
Description: In vitro TLR9 activation study, SEAP reporter. Type of series: cell-based. The settings on record: 18 hr incubation, OD 655 nm; read-out: HEK-Blue hTLR9-hPDL1 cell EC50. From the text: Data were normalized with untreated cells as zero.

Series [6] in a line: Stability of SN-38 (lactone / ring-opened form) at different pH. Type of series: physicochemical. On the procedure:
A hydrochloric acid solution with a pH of 4 and a sodium hydroxide solution with a pH of 10 were prepared respectively. 5 mg of SN-38 was dissolved in 5 mL of acetonitrile. The stability of SN-38 in a solution of changing pH (pH=10 to pH=4) was measured by shaking SN-38 at room temperature under pH=10 for 10 min, then adjusting the pH back to 4 and shake at room temperature for 10 min before sampling. SN-38 was then incubated at room temperature overnight (16 h) on a shaker and assayed afterwards.

Where [7] appears, read: alkaline conditions for 10 minutes, then acidic conditions before testing.
Where [8] appears, read: pH 10 to pH 4, after incubation overnight (16 h).

We go through ten molecules from patent US20240189442A1, “TARGETING CONJUGATES WITH THERAPEUTIC AGENTS AND OLIGONUCLEOTIDES AND USES THEREOF” (Allygen Group, priority 2021, published 2024).

In general, IC50 refers to the point on the concentration scale where inhibition reaches its midpoint. A higher IC50 goes with a need for much substance. As a reminder, the EC50 is the concentration giving half of the maximal effect.

Non-standard residues stand in square brackets, D forms with d. Primed or numbered codes have the meaning given here. No end group written: not given here. PEG12′ = NH2-(PEG)12 moiety Bounds are passed on as bounds.

Chain of Tissue-type Plasminogen Activator (tPA) (P00750 36-562, species assumed): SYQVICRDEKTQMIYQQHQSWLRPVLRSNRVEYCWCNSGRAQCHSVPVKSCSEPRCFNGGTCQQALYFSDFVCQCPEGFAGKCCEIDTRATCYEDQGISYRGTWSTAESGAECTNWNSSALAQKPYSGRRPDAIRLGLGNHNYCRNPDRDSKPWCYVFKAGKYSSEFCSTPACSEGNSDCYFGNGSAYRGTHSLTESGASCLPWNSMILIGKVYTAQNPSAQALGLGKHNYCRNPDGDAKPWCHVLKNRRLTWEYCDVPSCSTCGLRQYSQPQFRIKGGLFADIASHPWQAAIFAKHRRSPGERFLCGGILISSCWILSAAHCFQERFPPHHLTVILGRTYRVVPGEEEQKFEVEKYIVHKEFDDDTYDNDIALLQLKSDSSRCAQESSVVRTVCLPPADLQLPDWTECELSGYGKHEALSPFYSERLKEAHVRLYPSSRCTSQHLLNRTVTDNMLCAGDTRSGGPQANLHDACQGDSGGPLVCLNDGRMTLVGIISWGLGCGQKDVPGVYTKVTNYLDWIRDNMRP
Chain of antibody Ab2B (as listed by the source): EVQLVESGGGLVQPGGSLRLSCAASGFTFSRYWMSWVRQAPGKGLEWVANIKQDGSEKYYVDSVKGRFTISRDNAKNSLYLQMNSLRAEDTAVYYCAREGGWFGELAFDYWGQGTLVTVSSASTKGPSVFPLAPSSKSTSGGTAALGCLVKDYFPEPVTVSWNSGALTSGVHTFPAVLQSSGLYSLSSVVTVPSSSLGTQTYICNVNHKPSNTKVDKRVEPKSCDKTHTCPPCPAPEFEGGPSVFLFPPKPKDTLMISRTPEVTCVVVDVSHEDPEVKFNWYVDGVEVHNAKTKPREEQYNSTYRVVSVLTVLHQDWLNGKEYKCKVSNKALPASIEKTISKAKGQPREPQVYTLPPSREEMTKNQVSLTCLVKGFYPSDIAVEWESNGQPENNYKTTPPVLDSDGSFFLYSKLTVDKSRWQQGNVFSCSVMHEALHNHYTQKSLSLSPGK
Chain of antibody Ab2B (as listed by the source partner): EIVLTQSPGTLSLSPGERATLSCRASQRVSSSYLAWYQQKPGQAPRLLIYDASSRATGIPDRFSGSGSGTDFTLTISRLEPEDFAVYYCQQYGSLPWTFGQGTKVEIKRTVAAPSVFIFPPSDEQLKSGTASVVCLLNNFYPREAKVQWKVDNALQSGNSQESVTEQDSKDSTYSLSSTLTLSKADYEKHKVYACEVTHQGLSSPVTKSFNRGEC

“LGGSGRSANAILE [SEQ ID NO: 52, uPA substrate peptide]”: in series [1], the “Fluorescence Intensity Time to Reach Plateau” value (from here on “Fluorescence Intensity Time”) is 1.4 h. Further, the “tPA digestion (in words)” value is given as “mildly digested” in [2] (tPA 7.5×10^−3 mg/mL) and “digested” in series [2] (tPA […]10^−2 mg/mL).

For the molecule “SEQ ID NO: 151 ([PEG12′]RSQSRSRYYRQRQRSRRRRRRS)”, the “Binding to Ab2B (in words)” value with antibody Ab2B was “did not bind to Ab2B”.

On to “Glycine3-amido-PEG8-VC-PAB-DMAE-phenol linked SN38 [Compound of Formula (1)]”, for which the half-maximal inhibitory concentration (IC50) in the series on HCT15-hPDL1 cells was more than 300 nM. Also, the “Present in the form of lactones” value is 88% in series [3] (acidic conditions (pH 5 buffer)) and 98% in series [3] (alkaline conditions for 10 minutes, then acidic conditions (pH 9 to 5)). For the same molecule, the “Present as lactones in the form of ring opening” value in [3] (alkaline conditions (pH 9 buffer)) stood at 92%. Besides, the “Stability in plasma (in words)” value in series [4] is “partially hydrolyzed in plasma”. For the same molecule, on CathepsinB, the “CathepsinB digestion (in words)” value is on record as “effectively digested”. The “Product released on CathepsinB digestion” value at CathepsinB was “release SN38”.

As to “CpGB: CpG ODN CpGB, used as positive control and as component of Ab3A ADOC (DNA TCGAACGTTCGAACGTTCGAACGTTCGAAT; DNA, all phosphorothioate, methylation of C not given here)”, the EC50 in series [5] stood at 11500 nM.

Turning to SGRSA [SEQ ID NO: 51], the “Fluorescence Intensity Time” value in [1] came to 1.8 h. Also, the “tPA digestion (in words)” value in [2] (tPA 7.5×10^−3 mg/mL) was “mildly digested”; in [2] (tPA […]10^−2 mg/mL), “digested”.

For the molecule “GSGRNAQV [SEQ ID NO: 54, uPA substrate peptide]”, the “Fluorescence Intensity Time” value in series [1] is 1.4 h. The “tPA digestion (in words)” value in series [2] (tPA […]10^−2 mg/mL) is listed as “digested”.

As for “LGGSGRNAQVRLE [SEQ ID NO: 53, uPA substrate peptide]”, the “Fluorescence Intensity Time” value in series [1] turned out to be 1.6 h.

In turn, `CCc1c2c(nc3ccc(O)cc13)-c1cc3c(c(=O)n1C2)COC(=O)[C@]3(O)CC` [SN38, 7-ethyl-10-hydroxy-20(S)-camptothecin] registered an IC50 with HCT15-hPDL1 cells (Homo sapiens, 120 h) of 11.2 nM. In series [6] (acidic conditions (pH 4)), the Present as lactone was 94%. Also, the “Present as lactone ring-opened form” value in [6] (alkaline conditions (pH 10)) is reported as 92%. For the same molecule, in [6] (setting [7]), the Lactone ring-opening products worked out at 42% and the “Present in the form of lactone” value turned out to be 56%. In addition, in series [6] (setting [8]), the Lactone ring-opening products worked out at 13% and the “Present in the form of lactone” value was determined as 86%.

Consider LSGRSDNH [SEQ ID NO: 50], for which, in series [1], the “Fluorescence Intensity Time” value stood at 1.7 h.

Turning to `CCc1c2c(nc3ccc(O)cc13)-c1cc3c(c(=O)n1C2)COC(=O)[C@@]3(CC)OC(=O)N(C)CCN(C)C(=O)OCc1ccc(NC(=O)[C@H](CCCNC(N)=O)NC(=O)[C@@H](NC(=O)CCOCCOCCOCCOCCOCCOCCOCCOCCCNC(=O)CNC(=O)CNC(=O)CN)C(C)C)cc1` [Compound of Formula (2), Glycine3-amido-PEG8-VC-PAB-DMAE-α-hydroxy lactone linked SN38], 38.1 nM corresponded to half-maximal inhibition with HCT15-hPDL1 cells (Homo sapiens, 120 h) (IC50). In [3] (buffer, less affected by pH), the “Present in the form of lactones in buffer” value is reported as 98%. Besides, the “Stability in plasma (in words)” value in series [4] is reported as “mainly in the form of lactones in the plasma”. On CathepsinB, the “CathepsinB digestion (in words)” value is “effectively digested” and the “Product released on CathepsinB digestion” value is recorded as “release SN38 derivatives”.
